Assay results published in patent US20200024278A1, “COMPOSITION COMPRISING ANTIBIOTIC COMPOUND AND AN HETEROCYCLIC COMPOUND AND THEIR USE IN PREVENTING OR TREATING BACTERIAL INFECTIONS” (MUTABILIS, priority 2016, published 2020).
Where two headings read alike, the source gives them in different places.

Assays:
Experiment in all cases: MIC, broth microdilution (CLSI), substance alone or ATB combined with compound at 4 or 8 μg/mL
[1] = system: ECO 190317; format: cell-based, E. coli; settings: Escherichia coli; antibiotic alone; ECO 190317; read-out: MIC ATB alone
In short: (§1)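 Each strain received 5·10^5 CFU/mL of log-phase cells in ca-MHB over DMSO-spotted compound or compound-antibiotic combinations. After 16-20 h at 35° C, growth was scored visually.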

[2] = system: ECO UFR39; format: cell-based, E. coli; settings: Escherichia coli; antibiotic alone; ECO UFR39; read-out: MIC ATB alone
In short: as §1

[3] = system: KPN 6299; format: cell-based, K. pneumoniae; settings: Klebsiella pneumoniae, antibiotic alone, read-out: MIC ATB alone
In short: as §1

[4] = system: KPN BAA-1898; format: cell-based, K. pneumoniae; settings: Klebsiella pneumoniae, BAA1898, KPN BAA-1898
In short: as §1

[5] = system: KPN UFR42; format: cell-based, K. pneumoniae; settings: Klebsiella pneumoniae; antibiotic alone; KPN UFR42; read-out: MIC ATB alone
In short: as §1

[6] = system: ECL P99; format: cell-based, E. cloacae; settings: Enterobacter cloacae, ECL P99
In short: as §1

[7] = system: PAE 105250; format: cell-based, P. aeruginosa; settings: Pseudomonas aeruginosa, PAE 105250
In short: as §1

[8] = system: PAE UFR48; format: cell-based, P. aeruginosa; settings: Pseudomonas aeruginosa, PAE UFR48
In short: as §1

[9] = system: PAE UFR90; format: cell-based, P. aeruginosa; settings: Pseudomonas aeruginosa, PAE UFR90
In short: as §1

[10] = system: SAU 29213; format: cell-based, S. aureus; settings: Staphylococcus aureus
In short: as §1

[11] = system: SPN 49619; format: cell-based, S. pneumoniae; settings: Streptococcus pneumoniae, SPN 49619
In short: as §1

[12] = system: ABA UFR152; format: cell-based, A. baumannii
In short: as §1

[13] = system: ABA UFR156; format: cell-based, A. baumannii
In short: as §1

[14] = antibiotic alone, read-out: MIC ATB alone
[15] = Acinetobacter baumannii, antibiotic alone, read-out: MIC ATB alone

CO/N=C(\C(=O)N[C@@H]1C(=O)N2C(C(=O)[O-])=C(C[N+]3(C)CCCC3)CS[C@H]12)c1csc(N)n1 [FEP, Cefepime] gave an MIC [1] of 512 µg/mL, an MIC [2] of over 128 µg/mL and an MIC [3] of 128 µg/mL. The MIC [4, 14] was 64 µg/mL, the MIC ([4]; substance alone, read-out: MIC) was 64 µg/mL and the MIC [5] was 128 µg/mL. The MIC [6, 14] was 2 µg/mL, the MIC ([6]; substance alone, read-out: MIC) was 2 µg/mL and the MIC [7, 14] was 8 µg/mL. The MIC ([7]; substance alone, read-out: MIC) was 8 µg/mL, the MIC [8, 14] was 64 µg/mL and the MIC ([8]; substance alone, read-out: MIC) was 64 µg/mL. It also gave an MIC [9, 14] of 16 µg/mL, an MIC ([9]; substance alone, read-out: MIC) of 16 µg/mL and an MIC ([10]; antibiotic alone, SAU 29213, read-out: MIC ATB alone) of 4 µg/mL. The MIC ([10]; substance alone, SAU 29213 (MSSA 29213), read-out: MIC) was 4 µg/mL, the MIC [11, 14] was 0.063 µg/mL and the MIC ([11]; substance alone, read-out: MIC) was 0.063 µg/mL. The MIC [12, 15] was 16 µg/mL, the “MIC ATB combined with Example 1 @8 μg/ml” value ([12]; with Example 1 @8 μg/ml) was 16 µg/mL and the “MIC ATB combined with Example 3 @8 μg/ml” value ([12]; with Example 3 @8 μg/ml) was 8 µg/mL. For the same compound, the “MIC ATB combined with Example 6 @8 μg/ml” value ([12]; with Example 6 @8 μg/ml) was 16 µg/mL, the “MIC ATB combined with Example 9 @4 μg/ml” value ([12]; with Example 9 @4 μg/ml) was 16 µg/mL and the “MIC ATB combined with Example 10 @8 μg/ml” value ([12]; with Example 10 @8 μg/ml) was 8 µg/mL. The “MIC ATB combined with Example 11 @8 μg/ml” value ([12]; with Example 11 @8 μg/ml) was 16 µg/mL, the “MIC ATB combined with Example 12 @8 μg/ml” value ([12]; with Example 12 @8 μg/ml) was 8 µg/mL and the “MIC ATB combined with Example 15 @4 μg/ml” value ([12]; with Example 15 @4 μg/ml) was 16 µg/mL. The MIC [13, 15] was over 128 µg/mL, the “MIC ATB combined with Example 1 @8 μg/ml” value ([13]; with Example 1 @8 μg/ml) was 32 µg/mL and the “MIC ATB combined with Example 3 @8 μg/ml” value ([13]; with Example 3 @8 μg/ml) was 8 µg/mL. For the same compound, the “MIC ATB combined with Example 6 @8 μg/ml” value ([13]; with Example 6 @8 μg/ml) was 8 µg/mL, the “MIC ATB combined with Example 9 @4 μg/ml” value ([13]; with Example 9 @4 μg/ml) was 32 µg/mL and the “MIC ATB combined with Example 10 @8 μg/ml” value ([13]; with Example 10 @8 μg/ml) was 8 µg/mL. The “MIC ATB combined with Example 11 @8 μg/ml” value ([13]; with Example 11 @8 μg/ml) was 32 µg/mL, the “MIC ATB combined with Example 12 @8 μg/ml” value ([13]; with Example 12 @8 μg/ml) was 32 µg/mL and the “MIC ATB combined with Example 15 @4 μg/ml” value ([13]; with Example 15 @4 μg/ml) was 32 µg/mL.
